Results reported in patent publication US20260069588A1, “VEPDEGESTRANT FOR USE IN TREATING CANCER” (Arvinas Operation, Inc., priority 2022, published 2026).

Test: Phase 1 single agent studies in Japanese and Chinese participants (C4891016, C4891018): adverse events
[1] = TEAE treatment related, 200 mg, N = 15

Text: TEAE's from participants in both studies have been combined and are described below.

SMILES: O=C1CC[C@H](N2Cc3cc(N4CCN(CC5CCN(c6ccc([C@@H]7c8ccc(O)cc8CC[C@@H]7c7ccccc7)cc6)CC5)CC4)ccc3C2=O)C(=O)N1 [Compound A, (S)-3-(5-(4-((1-(4-((1R,2S)-6-hydroxy-2-phenyl-1,2,3,4-tetrahydronaphthalen-1-yl)phenyl)piperidin-4-yl)methyl)piperazin-1-yl)-1-oxoisoindolin-2-yl)piperidine-2,6-dione]
- Gastrointestinal disorders, Grade 3 [1]: 0 n (%)
- Gastrointestinal disorders, Grade 4 [1]: 0 n (%)
- Gastrointestinal disorders, Grade 5 [1]: 0 n (%)
- Gastrointestinal disorders, Missing or Unknown [1]: 0 n (%)
- Gastrointestinal disorders, Total [1]: 4 (26.7) n (%)
- General disorders and administration site conditions, Grade 1 [1]: 0 n (%)
- General disorders and administration site conditions, Grade 2 [1]: 1 (6.7) n (%)
- General disorders and administration site conditions, Grade 3 [1]: 0 n (%)
- General disorders and administration site conditions, Grade 4 [1]: 0) n (%)
- General disorders and administration site conditions, Grade 5 [1]: 0 n (%)
- General disorders and administration site conditions, Missing or Unknown [1]: 0 n (%)
- General disorders and administration site conditions, Total [1]: 1 (6.7) n (%)
- Headache, Grade 1 [1]: 1 (6.7) n (%)
- Headache, Grade 2 [1]: 0 n (%)
- Headache, Grade 3 [1]: 0 n (%)
- Headache, Grade 4 [1]: 0 n (%)
- Headache, Grade 5 [1]: 0 n (%)
- Headache, Missing or Unknown [1]: 0 n (%)
- Headache, Total [1]: 1 (6.7) n (%)
- Hyperuricemia, Grade 1 [1]: 2 (13.3) n (%)
- Hyperuricemia, Grade 2 [1]: 0 n (%)
- Hyperuricemia, Grade 3 [1]: 0 n (%)
- Hyperuricemia, Grade 4 [1]: 0 n (%)
- Hyperuricemia, Grade 5 [1]: 0 n (%)
- Hyperuricemia, Missing or Unknown [1]: 0 n (%)
- Hyperuricemia, Total [1]: 2 (13.3) n (%)
- Hypokalemia, Grade 1 [1]: 1 (6.7) n (%)
- Hypokalemia, Grade 2 [1]: 0 n (%)
- Hypokalemia, Grade 3 [1]: 0 n (%)
- Hypokalemia, Grade 4 [1]: 0 n (%)
- Hypokalemia, Grade 5 [1]: 0 n (%)
- Hypokalemia, Missing or Unknown [1]: 0 n (%)
- Hypokalemia, Total [1]: 1 (6.7) n (%)
- Hypophosphatasemia, Grade 1 [1]: 1 (6.7) n (%)
- Hypophosphatasemia, Grade 2 [1]: 0 n (%)
- Hypophosphatasemia, Grade 3 [1]: 0 n (%)
- Hypophosphatasemia, Grade 4 [1]: 0 n (%)
- Hypophosphatasemia, Grade 5 [1]: 0 n (%)
- Hypophosphatasemia, Missing or Unknown [1]: 0 n (%)
- Hypophosphatasemia, Total [1]: 1 (6.7) n (%)
- Investigations, Grade 1 [1]: 4 (26.7) n (%)
- Investigations, Grade 2 [1]: 1 (6.7) n (%)
- Investigations, Grade 3 [1]: 2 (13.3) n (%)
- Investigations, Grade 4 [1]: 0 n (%)
- Investigations, Grade 5 [1]: 0 n (%)
- Investigations, Missing or Unknown [1]: 0 n (%)
- Investigations, Total [1]: 7 (46.7) n (%)
- Metabolism and nutrition disorders, Grade 1 [1]: 3 (20.0) n (%)
- Metabolism and nutrition disorders, Grade 2 [1]: 0 n (%)
- Metabolism and nutrition disorders, Grade 3 [1]: 0 n (%)
- Metabolism and nutrition disorders, Grade 4 [1]: 0 n (%)
- Metabolism and nutrition disorders, Grade 5 [1]: 0) n (%)
- Metabolism and nutrition disorders, Missing or Unknown [1]: 0 n (%)
- Metabolism and nutrition disorders, Total [1]: 3 (20.0) n (%)
- Musculoskeletal and connective tissue disorders, Grade 1 [1]: 1 (6.7) n (%)
- Musculoskeletal and connective tissue disorders, Grade 2 [1]: 0) n (%)
- Musculoskeletal and connective tissue disorders, Grade 3 [1]: 0 n (%)
- Musculoskeletal and connective tissue disorders, Grade 4 [1]: 0 n (%)
- Musculoskeletal and connective tissue disorders, Grade 5 [1]: 0 n (%)
- Musculoskeletal and connective tissue disorders, Missing or Unknown [1]: 0 n (%)
- Musculoskeletal and connective tissue disorders, Total [1]: 1 (6.7) n (%)
- Nausea, Grade 1 [1]: 1 (6.7) n (%)
- Nausea, Grade 2 [1]: 0 n (%)
- Nausea, Grade 3 [1]: 0 n (%)
- Nausea, Grade 4 [1]: 0 n (%)
- Nausea, Grade 5 [1]: 0 n (%)
- Nausea, Missing or Unknown [1]: 0 n (%)
- Nausea, Total [1]: 1 (6.7) n (%)
- Nervous system disorders, Grade 1 [1]: 2 (13.3) n (%)
- Nervous system disorders, Grade 2 [1]: 0 n (%)
- Nervous system disorders, Grade 3 [1]: 0 n (%)
- Nervous system disorders, Grade 4 [1]: 0 n (%)
- Nervous system disorders, Grade 5 [1]: 0 n (%)
- Nervous system disorders, Missing or Unknown [1]: 0 n (%)
- Nervous system disorders, Total [1]: 2 (13.3) n (%)
- Neutrophil count decreased, Grade 1 [1]: 1 (6.7) n (%)
- Neutrophil count decreased, Grade 2 [1]: 0 n (%)
- Neutrophil count decreased, Grade 3 [1]: 1 (6.7) n (%)
- Neutrophil count decreased, Grade 4 [1]: 0 n (%)
- Neutrophil count decreased, Grade 5 [1]: 0 n (%)
- Neutrophil count decreased, Missing or Unknown [1]: 0 n (%)
- Neutrophil count decreased, Total [1]: 2 (13.3) n (%)
- Pain, Grade 1 [1]: 0 n (%)
- Pain, Grade 2 [1]: 1 (6.7) n (%)
- Pain, Grade 3 [1]: 0 n (%)
- Pain, Grade 4 [1]: 0 n (%)
- Pain, Grade 5 [1]: 0 n (%)
- Pain, Missing or Unknown [1]: 0 n (%)
- Pain, Total [1]: 1 (6.7) n (%)
- Participants with events, Grade 1 [1]: 7 (46.7) n (%)
- Participants with events, Grade 2 [1]: 2 (13.3) n (%)
- Participants with events, Grade 3 [1]: 2 (13.3) n (%)
- Participants with events, Grade 4 [1]: 0 n (%)
- Participants with events, Grade 5 [1]: 0 n (%)
- Participants with events, Missing or Unknown [1]: 0 n (%)
- Participants with events, Total [1]: 11 (73.3) n (%)
- Platelet count decreased, Grade 1 [1]: 1 (6.7) n (%)
- Platelet count decreased, Grade 2 [1]: 0 n (%)
- Platelet count decreased, Grade 3 [1]: 0 n (%)
- Platelet count decreased, Grade 4 [1]: 0 n (%)
- Platelet count decreased, Grade 5 [1]: 0) n (%)
- Platelet count decreased, Missing or Unknown [1]: 0 n (%)
- Platelet count decreased, Total [1]: 1 (6.7) n (%)
- Pruritus, Grade 1 [1]: 1 (6.7) n (%)
- Pruritus, Grade 2 [1]: 0 n (%)
- Pruritus, Grade 3 [1]: 0 n (%)
- Pruritus, Grade 4 [1]: 0) n (%)
- Pruritus, Grade 5 [1]: 0 n (%)
- Pruritus, Missing or Unknown [1]: 0 n (%)
- Pruritus, Total [1]: 1 (6.7) n (%)
- Sinus bradycardia, Grade 1 [1]: 1 (6.7) n (%)
- Sinus bradycardia, Grade 2 [1]: 0 n (%)
- Sinus bradycardia, Grade 3 [1]: 0 n (%)
- Sinus bradycardia, Grade 4 [1]: 0 n (%)
- Sinus bradycardia, Grade 5 [1]: 0 n (%)
- Sinus bradycardia, Missing or Unknown [1]: 0 n (%)
- Sinus bradycardia, Total [1]: 1 (6.7) n (%)
- Skin and subcutaneous tissue disorders, Grade 1 [1]: 2 (13.3) n (%)
- Skin and subcutaneous tissue disorders, Grade 2 [1]: 0 n (%)
- Skin and subcutaneous tissue disorders, Grade 3 [1]: 0 n (%)
- Skin and subcutaneous tissue disorders, Grade 4 [1]: 0 n (%)
- Skin and subcutaneous tissue disorders, Grade 5 [1]: 0 n (%)
- Skin and subcutaneous tissue disorders, Missing or Unknown [1]: 0 n (%)
- Skin and subcutaneous tissue disorders, Total [1]: 2 (13.3) n (%)
- White blood cell count decreased, Grade 1 [1]: 0 n (%)
- White blood cell count decreased, Grade 2 [1]: 0 n (%)
- White blood cell count decreased, Grade 3 [1]: 1 (6.7) n (%)
- White blood cell count decreased, Grade 4 [1]: 0 n (%)
- White blood cell count decreased, Grade 5 [1]: 0 n (%)
- White blood cell count decreased, Missing or Unknown [1]: 0 n (%)
- White blood cell count decreased, Total [1]: 1 (6.7) n (%)
- discontinuations due to TEAE (in vivo): No discontinuations reported due to TEAE
